We go through 31 compounds from patent US20260374754A1, “N-((ISOQUINOLIN-6-YL)METHYL)-1H-PYRAZOLE-4-CARBOXAMIDE DERIVATIVES AS PLASMA KALLIKREIN INHIBITORS FOR THE TREATMENT OF HEREDITARY ANGIODEMA” (Takeda Pharmaceutical Company Limited, priority 2022, published 2026).

pEC50: −log10 of the molar value.

In general, pEC50 refers to the EC50 on a negative log10 scale, so that one unit is a factor of ten.

Sequence of human activated kallikrein enzyme (P03952 391-638 limits assumed): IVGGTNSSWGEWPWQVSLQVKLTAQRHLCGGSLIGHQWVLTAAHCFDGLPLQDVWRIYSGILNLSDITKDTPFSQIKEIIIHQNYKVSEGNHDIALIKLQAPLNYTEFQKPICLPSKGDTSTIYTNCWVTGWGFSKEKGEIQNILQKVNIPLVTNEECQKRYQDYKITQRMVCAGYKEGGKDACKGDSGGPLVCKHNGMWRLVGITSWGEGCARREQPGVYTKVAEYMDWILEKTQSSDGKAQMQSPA
Sequence of human activated kallikrein enzyme (P03952 20-390 partner limits assumed): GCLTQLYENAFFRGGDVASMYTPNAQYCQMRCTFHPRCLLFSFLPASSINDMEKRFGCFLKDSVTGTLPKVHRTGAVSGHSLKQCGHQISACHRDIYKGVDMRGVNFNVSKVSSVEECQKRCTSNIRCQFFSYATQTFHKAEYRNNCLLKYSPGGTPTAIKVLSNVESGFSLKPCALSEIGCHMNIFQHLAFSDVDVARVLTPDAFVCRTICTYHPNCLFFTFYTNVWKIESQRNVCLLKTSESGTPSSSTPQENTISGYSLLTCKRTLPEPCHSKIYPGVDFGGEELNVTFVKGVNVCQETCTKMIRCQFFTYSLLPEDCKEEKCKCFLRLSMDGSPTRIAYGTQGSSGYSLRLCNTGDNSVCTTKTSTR

The test has as its target human activated kallikrein enzyme (Homo sapiens, UniProt P03952). In words: Inhibition of human activated plasma kallikrein, fluorogenic PFR-AMC substrate, 500 pM enzyme format. It is filed as biochemical. The note with it: 500 pM activated kallikrein; 300 μM PFR-AMC; 30 min preincubation; 10 min room temperature; pH 7.5; read-out: Primary Dose Response Assay: Average EC50. Summed up: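 Using fluorogenic PFR-AMC at 300 μM, cleavage by 500 pM human activated kallikrein ran 10 min at room temperature, read at 460 nm emission (380 nm excitation). Enzyme and compounds were first preincubated 30 min in 20 mM Tris pH 7.5, 150 mM NaCl, 1 mM EDTA, 0.1% PEG-400, 0.1% Triton X-100.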
On to `Cc1cc2c(N)nccc2c(C)c1CNc1cc(NC(C)c2ccc(Cc3ccccn3)cc2)ncn1` (stereo not shown) [Example 366, N^4-((1-amino-5,7-dimethylisoquinolin-6-yl)methyl)-N^6-(1-(4-(pyridin-2-ylmethyl)phenyl)ethyl)pyrimidine-4,6-diamine], for which the negative-log EC50 (pEC50) was > 9.00.
On to `Cc1cc2c(N)nccc2c(C)c1CNC(=O)c1cnn(Cc2ccc(N(C)C(=O)N3CCCC3)cc2)c1` [Example 21, N-((1-amino-5,7-dimethylisoquinolin-6-yl)methyl)-1-(4-(N-methylpyrrolidine-1-carboxamido)benzyl)-1H-pyrazole-4-carboxamide], for which the negative logarithm of the EC50 (pEC50) was 8.00 to 9.00.
Regarding `Cc1cc2c(N)nccc2c(C)c1CNc1cc(OCc2ccc(Cn3ccccc3=O)cc2)ncn1` [Example 301, 1-(4-(((6-(((1-amino-5,7-dimethylisoquinolin-6-yl)methyl)amino)pyrimidin-4-yl)oxy)methyl)benzyl)pyridin-2(1H)-one], the pEC50 was > 9.00.
Consider `Cc1cc2c(N)nccc2c(C)c1CNC(=O)c1cnn(Cc2cccc(C(F)(F)F)c2)c1` [Example 97, N-((1-amino-5,7-dimethylisoquinolin-6-yl)methyl)-1-(3-(trifluoromethyl)benzyl)-1H-pyrazole-4-carboxamide], for which the pEC50 is 7.00 to 8.00.
Regarding `Cc1cc2c(N)nccc2c(C)c1CNC(=O)c1cnn(Cc2cccc(C3CC3)c2)c1` [Example 31, N-((1-amino-5,7-dimethylisoquinolin-6-yl)methyl)-1-(3-cyclopropylbenzyl)-1H-pyrazole-4-carboxamide], the pEC50 is 8.00 to 9.00.
Take `Cc1cc2c(N)nccc2c(C)c1CNC(=O)c1cnn(Cc2cc3c(Cl)cccc3s2)c1` [Example 62, N-((1-amino-5,7-dimethylisoquinolin-6-yl)methyl)-1-((4-chlorobenzo[b]thiophen-2-yl)methyl)-1H-pyrazole-4-carboxamide]: the pEC50 was 8.00 to 9.00.
Take `Cc1cc2c(N)nccc2c(C)c1CNc1cc(NC(C)c2ccc3ncc(Cl)cc3c2)ncn1` (stereo not shown) [Example 310, N^4-((1-amino-5,7-dimethylisoquinolin-6-yl)methyl)-N^6-(1-(3-chloroquinolin-6-yl)ethyl)pyrimidine-4,6-diamine]: the pEC50 is > 9.00.
Regarding `Cc1cc2c(N)nccc2c(C)c1CNc1cc(C(O)c2cn3cc(C4CC4)ccc3n2)ncn1` (stereo not shown) [Example 406, (6-(((1-amino-5,7-dimethylisoquinolin-6-yl)methyl)amino)pyrimidin-4-yl)(6-cyclopropylimidazo[1,2-a]pyridin-2-yl)methanol], the pEC50 is > 9.00.
For `Cc1cnc2ccc(Cn3cc(C(=O)NCc4c(C)cc5c(N)nccc5c4C)cn3)cc2n1` [Example 24, N-((1-amino-5,7-dimethylisoquinolin-6-yl)methyl)-1-((3-methylquinoxalin-6-yl)methyl)-1H-pyrazole-4-carboxamide] the value was > 9.00; for `Cc1cc2c(N)nccc2c(C)c1CNc1cc2nn(Cc3cn4cc(C5CC5)ccc4n3)cc2cn1` [Example 269, 6-(((2-((6-cyclopropylimidazo[1,2-a]pyridin-2-yl)methyl)-2H-pyrazolo[4,3-c]pyridin-6-yl)amino)methyl)-5,7-dimethylisoquinolin-1-amine], 7.00 to 8.00; for `Cc1ccc2nc(Cn3cc(C(=O)NCc4c(C)cc5c(N)nccc5c4C)cn3)cn2c1` [Example 10, N-((1-amino-5,7-dimethylisoquinolin-6-yl)methyl)-1-((6-methylimidazo[1,2-a]pyridin-2-yl)methyl)-1H-pyrazole-4-carboxamide], > 9.00.
On to `Cc1cc2c(N)nccc2c(C)c1CNC(=O)c1cnn(Cc2ccc(CC(=O)N(C)C)cc2)c1` [Example 63, N-((1-amino-5,7-dimethylisoquinolin-6-yl)methyl)-1-(4-(2-(dimethylamino)-2-oxoethyl)benzyl)-1H-pyrazole-4-carboxamide], for which the pEC50 was > 9.00.
For `Cc1cc2c(N)nccc2c(C)c1CNc1cc(OCc2ccc(-n3ccnc3)cc2)cnn1` [Example 441, 6-(((5-((4-(1H-imidazol-1-yl)benzyl)oxy)pyridazin-3-yl)amino)methyl)-5,7-dimethylisoquinolin-1-amine] the value was 8.00 to 9.00; for `Cc1cccc(Cn2cc(C(=O)NCc3c(C)cc4c(N)nccc4c3C)cn2)c1` [Example 41, N-((1-amino-5,7-dimethylisoquinolin-6-yl)methyl)-1-(3-methylbenzyl)-1H-pyrazole-4-carboxamide], 7.00 to 8.00.
In the case of `Cc1cc2c(N)nccc2c(C)c1CNC(=O)c1cnn(Cc2ccc3cc(Br)ccc3n2)c1` [Example 69, N-((1-amino-5,7-dimethylisoquinolin-6-yl)methyl)-1-((6-bromoquinolin-2-yl)methyl)-1H-pyrazole-4-carboxamide], the pEC50 is 8.00 to 9.00.
As for `CCCCc1cc(COc2cc(NCc3c(C)cc4c(N)nccc4c3C)ncn2)cc2cc(Cl)cnc12` [Example 402, 6-(((6-((8-butyl-3-chloroquinolin-6-yl)methoxy)pyrimidin-4-yl)amino)methyl)-5,7-dimethylisoquinolin-1-amine], the pEC50 was 6.00 to 7.00.
On to `Cc1ccc2ccc(Cn3cc(C(=O)NCc4c(C)cc5c(N)nccc5c4C)cn3)cc2c1` [Example 153, N-((1-amino-5,7-dimethylisoquinolin-6-yl)methyl)-1-((7-methylnaphthalen-2-yl)methyl)-1H-pyrazole-4-carboxamide], for which the pEC50 is 8.00 to 9.00.
For `Cc1cc2c(N)nccc2c(C)c1CNC(=O)c1cnn(Cc2cccc(C#N)c2)c1` [Example 94, N-((1-amino-5,7-dimethylisoquinolin-6-yl)methyl)-1-(3-cyanobenzyl)-1H-pyrazole-4-carboxamide] the value was 7.00 to 8.00; for `Cc1cc(Cn2cc(C(=O)NCc3c(C)cc4c(N)nccc4c3C)cn2)cc(C)c1CC(=O)N(C)C` [Example 20, N-((1-amino-5,7-dimethylisoquinolin-6-yl)methyl)-1-(4-(2-(dimethylamino)-2-oxoethyl)-3,5-dimethylbenzyl)-1H-pyrazole-4-carboxamide], > 9.00; for `Cc1cc2c(N)nccc2c(C)c1CNc1nccc2cn(Cc3cn4cc(C5CC5)cnc4n3)nc12` [Example 264, 6-(((2-((6-cyclopropylimidazo[1,2-a]pyrimidin-2-yl)methyl)-2H-pyrazolo[3,4-c]pyridin-7-yl)amino)methyl)-5,7-dimethylisoquinolin-1-amine], > 9.00.
Turning to `Cc1cc2c(N)nccc2c(C)c1CNC(=O)c1cn(Cc2ccc(CC(=O)N3CC4CC4C3)cc2)nc1C(F)(F)F` (stereo not shown) [Example 182, 1-(4-(2-(3-azabicyclo[3.1.0]hexan-3-y1)-2-oxoethyl)benzyl)-N-((1-amino-5,7-dimethylisoquinolin-6-yl)methyl)-3-(trifluoromethyl)-1H-pyrazole-4-carboxamide], the pEC50 is > 9.00.
Turning to `Cc1cc2c(N)nccc2c(C)c1CNc1nccc2c1cnn2Cc1cn2cc(C3CC3)cnc2n1` [Example 393, 6-(((1-((6-cyclopropylimidazo[1,2-a]pyrimidin-2-yl)methyl)-1H-pyrazolo[4,3-c]pyridin-4-yl)amino)methyl)-5,7-dimethylisoquinolin-1-amine], the pEC50 was 6.00 to 7.00.
For `Cc1cc2c(N)nccc2c(C)c1CNc1cc(OCc2ccc3nccn3c2)cnn1` [Example 410, 6-(((5-(imidazo[1,2-a]pyridin-6-ylmethoxy)pyridazin-3-yl)amino)methyl)-5,7-dimethylisoquinolin-1-amine] the value was 6.00 to 7.00; for `Cc1cc2c(N)nccc2c(C)c1CNc1cc(NCc2ccc3nccc(C)c3c2)ncn1` [Example 324, N^4-((1-amino-5,7-dimethylisoquinolin-6-yl)methyl)-N^6-((4-methylquinolin-6-yl)methyl)pyrimidine-4,6-diamine], 8.00 to 9.00; for `Cc1ccc2cc(COc3cnnc(NCc4c(C)cc5c(N)nccc5c4C)c3)ccc2n1` [Example 412, 5,7-dimethyl-6-(((5-((2-methylquinolin-6-yl)methoxy)pyridazin-3-yl)amino)methyl)isoquinolin-1-amine], > 9.00.
Turning to `Cc1cc2c(N)nccc2c(C)c1CNC(=O)c1cnn(Cc2ccncc2)c1` [Example 87, N-((1-amino-5,7-dimethylisoquinolin-6-yl)methyl)-1-(pyridin-4-ylmethyl)-1H-pyrazole-4-carboxamide], the pEC50 is 6.00 to 7.00.
For `CCOC(=O)[C@@H]1[C@@H]2CN(C(=O)Cc3ccc(Cn4cc(C(=O)NCc5c(C)cc6c(N)nccc6c5C)cn4)cc3)C[C@@H]21` [Example 211, ethyl (1R,5S,6s)-3-(2-(4-((4-(((1-amino-5,7-dimethylisoquinolin-6-y1)methyl)carbamoyl)-1H-pyrazol-1-yl)methyl)phenyl)acetyl)-3-azabicyclo[3.1.0]hexane-6-carboxylate] the value was > 9.00.
On to `Cc1cc2c(N)nccc2c(C)c1CNc1cc2c(Cc3ccc4ccccc4c3)cn(C)c2cn1` [Example 524, 5,7-dimethyl-6-(((1-methyl-3-(naphthalen-2-ylmethyl)-1H-pyrrolo[2,3-c]pyridin-5-yl)amino)methyl)isoquinolin-1-amine], for which the pEC50 was < 6.00.
Take `Cc1c(CNC(=O)c2cnn(Cc3ccccc3)c2)c(C2CC2)cc2c(N)nccc12` [Example 174, N-((1-amino-7-cyclopropyl-5-methylisoquinolin-6-yl)methyl)-1-benzyl-1H-pyrazole-4-carboxamide]: the negative logarithm of the EC50 (pEC50) was 7.00 to 8.00.
Consider `Cc1cc2c(N)nccc2c(C)c1CNc1cc(NCc2ccc(OC(F)(F)C(=O)N(C)C)cc2)ncn1` [Example 352, 2-(4-(((6-(((1-amino-5,7-dimethylisoquinolin-6-yl)methyl)amino)pyrimidin-4-yl)amino)methyl)phenoxy)-2,2-difluoro-N,N-dimethylacetamide], for which the pEC50 is 7.00 to 8.00.
Take `COCc1nn(Cc2ccc(Cn3cccn3)cc2)cc1C(=O)NCc1c(C)cc2c(N)nccc2c1C` [Example 187, 1-(4-((1H-pyrazol-1-yl)methyl)benzyl)-N-((1-amino-5,7-dimethylisoquinolin-6-yl)methyl)-3-(methoxymethyl)-1H-pyrazole-4-carboxamide]: the pEC50 was > 9.00.
